BindingDB's records for patent US117808 (Pfizer, 2023)

Target: Protein kinase C beta type Isoform 2 (Homo sapiens, UniProt P05771)
Experiment: Protein Kinase C beta 2 (PKCpII) Assay
Method: Protein Kinase C beta 2 (PKCpII) catalyzes the production of ADP from ATP that accompanies the phosphoryl transfer to the PKC Pseudosubstrate peptide (A→S, RFARKGSLRQKNV). This transfer is coupled to the oxidation of β-NADH through the activities of Pyruvate Kinase (PK) and Lactate Dehydrogenase (LDH). β-NADH conversion to NAD+ is monitored by the decrease in absorbance at 340 nm (e=6.22 cm−1 mM−1) using a Molecular Devices SPECTRA max PLUS spectrophotometer.A typical assay was carried out on a 96-well, clear microtiter plate in a Molecular Devices spectrophotometer for 20 minutes at 30° C. in 0.1 mL of assay buffer containing 50 mM HEPES, pH 7.4, 5 nM PKC, 23 units of pyruvate kinase, 33 units of lactate dehydrogenase, 0.15 mM peptide, 0.1 mM ATP, 1 mM DTT, 4 mM PEP, 8 mM MgCl2, 0.3 mM NADH, […]), 10 mg/mL PS, 50 ng/mL PMA, 7.5% DMSO and from about 10,000 nM to 0.169 nM compound inhibitor. Stock solutions of 3-sn-phosphatidyl-L-serine (PS) and phorbol-12-myristate-13-acetate (PMA) were sonicated for 30 seconds just prior to addition to assay buffer and assays were initiated by the addition of 100 μM ATP.

Sequence of Protein kinase C beta type Isoform 2 (P05771 as listed by the source): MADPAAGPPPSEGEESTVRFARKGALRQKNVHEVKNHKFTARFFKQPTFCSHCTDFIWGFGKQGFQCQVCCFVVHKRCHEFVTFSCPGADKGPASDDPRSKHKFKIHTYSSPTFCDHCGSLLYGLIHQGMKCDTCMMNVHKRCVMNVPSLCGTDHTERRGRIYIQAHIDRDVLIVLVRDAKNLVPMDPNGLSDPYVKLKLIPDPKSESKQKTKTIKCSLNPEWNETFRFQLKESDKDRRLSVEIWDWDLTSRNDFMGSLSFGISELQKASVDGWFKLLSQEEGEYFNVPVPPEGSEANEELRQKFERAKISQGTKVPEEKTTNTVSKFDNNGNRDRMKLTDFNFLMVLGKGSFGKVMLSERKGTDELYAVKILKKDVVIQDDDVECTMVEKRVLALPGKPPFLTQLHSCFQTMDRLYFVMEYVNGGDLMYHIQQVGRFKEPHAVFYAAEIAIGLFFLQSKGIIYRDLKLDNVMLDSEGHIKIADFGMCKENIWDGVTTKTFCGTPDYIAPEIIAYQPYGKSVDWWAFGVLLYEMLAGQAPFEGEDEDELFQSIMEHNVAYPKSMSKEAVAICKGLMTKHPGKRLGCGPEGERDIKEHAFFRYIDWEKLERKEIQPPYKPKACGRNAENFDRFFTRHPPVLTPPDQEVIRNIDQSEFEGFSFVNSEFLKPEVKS

Question: With `Cc1ncc(F)c(Nc2n[nH]c3c2CN(C(=O)N2C[C@@H](C)N(C)C[C@@H]2C)C3(C)C)n1` [US11220518, Ex. No. H2] as the compound, how does the Ki read?
Answer: The Ki was 2.63 nM.
